Where “and” joins values, the source holds several entries; their conditions need not be identical. Equal entries are not always repeated. Inconclusive results and toxic doses are left out. Rule for the calls: active = survival T/C of 150% or more; inactive = T/C below 125% in these data.
Test system: P388 leukemia ip, CD2F1 mice, survival T/C
Assay: NCI In Vivo Anticancer Drug Screen. Data for tumor model P388 Leukemia (intraperitoneal) in CD2F1 (CDF1) mice
Conditions: endpoint: median survival time, higher = longer survival
Outline: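 Mice carrying the transplanted tumor received test compound or vehicle. Survival was recorded in each group, and the value is the treated-group measurement divided by that of the vehicle-treated control group.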

[1] = dose: 50.0 mg/kg/injection, schedule: Q01DX009 (ip), vehicle: Klucel (hydroxypropylcellulose) (HPC)
[2] = dose: 100.0 mg/kg/injection, schedule: Q01DX009 (ip), vehicle: Klucel (hydroxypropylcellulose) (HPC)
[3] = dose: 200.0 mg/kg/injection, schedule: Q01DX009 (ip), vehicle: Klucel (hydroxypropylcellulose) (HPC)
[4] = dose: 12.5 mg/kg/injection, schedule: Q01DX005 (ip), vehicle: saline with Tween-80
[5] = dose: 25.0 mg/kg/injection, schedule: Q01DX005 (ip), vehicle: saline with Tween-80
[6] = dose: 50.0 mg/kg/injection, schedule: Q01DX005 (ip), vehicle: saline with Tween-80
[7] = dose: 100.0 mg/kg/injection, schedule: Q01DX005 (ip), vehicle: saline with Tween-80
[8] = dose: 25.0 mg/kg/injection, schedule: Q01DX009 (ip), vehicle: Klucel (hydroxypropylcellulose) (HPC)
[9] = dose: 50.0 mg/kg/injection, schedule: Q01DX009 (ip), vehicle: saline with Tween-80
[10] = dose: 100.0 mg/kg/injection, schedule: Q01DX009 (ip), vehicle: saline with Tween-80
[11] = dose: 200.0 mg/kg/injection, schedule: Q01DX009 (ip), vehicle: saline with Tween-80
[12] = dose: 400.0 mg/kg/injection, schedule: Q01DX009 (ip), vehicle: Klucel (hydroxypropylcellulose) (HPC)
[13] = dose: 50.0 mg/kg/injection, schedule: Q01DX005 (ip), vehicle: Klucel (hydroxypropylcellulose) (HPC)
[14] = dose: 100.0 mg/kg/injection, schedule: Q01DX005 (ip), vehicle: Klucel (hydroxypropylcellulose) (HPC)
[15] = dose: 200.0 mg/kg/injection, schedule: Q01DX005 (ip), vehicle: Klucel (hydroxypropylcellulose) (HPC)
[16] = dose: 50.0 mg/kg/injection, schedule: Q01DX009 (ip), vehicle: saline
[17] = dose: 100.0 mg/kg/injection, schedule: Q01DX009 (ip), vehicle: saline
[18] = dose: 200.0 mg/kg/injection, schedule: Q01DX009 (ip), vehicle: saline
[19] = dose: 50.0 mg/kg/injection, schedule: Q01DX005 (ip), vehicle: saline
[20] = dose: 25.0 mg/kg/injection, schedule: Q01DX005 (ip), vehicle: Klucel (hydroxypropylcellulose) (HPC)
[21] = dose: 12.5 mg/kg/injection, schedule: Q01DX009 (ip), vehicle: Klucel (hydroxypropylcellulose) (HPC)

Measured: T/C

CCCCNC(=S)NC1C2CC3CC(C2)CC1C3 (centres undefined)
inactive: [1] 97 % of control | [2] 98 % of control | [3] 101 % of control

COC1=CC2(C=CC1=O)CCC(=O)O2 (centres undefined)
inactive: [4] 119 % of control | [5] 111 % of control | [6] 115 % of control and 113 % of control | [7] 108 % of control

CC(CN(C)C)C(=O)C(=Cc1ccccc1)C(=O)C(C)CN(C)C (centres undefined)
inactive: dose: 60.0 mg/kg/injection, schedule: Q01DX005 (ip), vehicle: saline 100 % of control | dose: 120.0 mg/kg/injection, schedule: Q01DX005 (ip), vehicle: saline 108 % of control | dose: 240.0 mg/kg/injection, schedule: Q01DX005 (ip), vehicle: saline 102 % of control

Cc1cccc(Br)[n+]1[O-]
inactive: dose: 12.5 mg/kg/injection, schedule: Q01DX001 (ip), vehicle: saline 100 % of control | dose: 25.0 mg/kg/injection, schedule: Q01DX001 (ip), vehicle: saline 109 % of control | dose: 50.0 mg/kg/injection, schedule: Q01DX001 (ip), vehicle: saline 100 % of control

O=c1cc(-c2ccc(O)cc2)oc2cc(O)c(C3OC(CO)C(O)C(O)C3OC3OC(CO)C(O)C(O)C3O)c(O)c12 (centres undefined)
inactive: [8] 102 % of control | [1] 107 % of control | [2] 105 % of control | [3] 99 % of control

CCN(CC)Cc1cc(N)cc(N=Nc2ccc3c(c2)c2ccccc2n3CC)c1O
inactive: [9] 97 % of control | [10] 108 % of control | [11] 105 % of control

COc1ccc(C(=O)/C=C/c2ccc(OC)c(OC)c2OC)c(OC(C)=O)c1
inactive: dose: 100.0 mg/kg/injection, schedule: Q04DX003 (ip), vehicle: Klucel (hydroxypropylcellulose) (HPC) 98 % of control | dose: 200.0 mg/kg/injection, schedule: Q04DX003 (ip), vehicle: Klucel (hydroxypropylcellulose) (HPC) 91 % of control | dose: 400.0 mg/kg/injection, schedule: Q04DX003 (ip), vehicle: Klucel (hydroxypropylcellulose) (HPC) 93 % of control

O=C(OCOC(=O)c1ccccc1)c1ccccc1
inactive: [2] 117 % of control | [3] 107 % of control | [12] 109 % of control

COc1ccc2c(c1OC)C(=O)OC2c1cc(Br)c(O)c(C2OC(=O)c3c2ccc(OC)c3OC)c1 (centres undefined)
inactive: [9] 90 % of control | [10] 86 % of control | dose: 100.0 mg/kg/injection, schedule: Q04DX003 (ip), vehicle: saline 87 % of control | dose: 400.0 mg/kg/injection, schedule: Q04DX003 (ip), vehicle: saline 87 % of control

Cc1ccc(NCCN(C)C)c2c(=O)c3c(O)cccc3sc12
active: dose: 50.0 mg/kg/injection, schedule: Q01DX009 (ip), vehicle: suspension in saline 166 % of control

CCOC(=O)C(C(=O)OCC)c1c[n+]([O-])c2ccccc2c1[N+](=O)[O-]
inactive: [10] 104 % of control | dose: 100.0 mg/kg/injection, schedule: Q04DX003 (ip), vehicle: saline with Tween-80 109 % of control | [11] 100 % of control | dose: 200.0 mg/kg/injection, schedule: Q04DX003 (ip), vehicle: saline with Tween-80 104 % of control | dose: 400.0 mg/kg/injection, schedule: Q01DX009 (ip), vehicle: saline with Tween-80 100 % of control | dose: 400.0 mg/kg/injection, schedule: Q04DX003 (ip), vehicle: saline with Tween-80 95 % of control

CCCCCCCCCCCN(CCCCCCCCCCC)CC(O)c1cc2c(c3ccccc13)CCCC2 (centres undefined)
inactive: [13] 98 % of control | [14] 100 % of control | [15] 96 % of control

CCn1c(Cl)c(/C=N/NC(N)=S)c2cc(/C=N/NC(N)=S)ccc21
inactive: dose: 100.0 mg/kg/injection, schedule: Q01DX001 (ip), vehicle: Klucel (hydroxypropylcellulose) (HPC) 98 % of control | dose: 200.0 mg/kg/injection, schedule: Q01DX001 (ip), vehicle: Klucel (hydroxypropylcellulose) (HPC) 97 % of control | dose: 400.0 mg/kg/injection, schedule: Q01DX001 (ip), vehicle: Klucel (hydroxypropylcellulose) (HPC) 89 % of control

O=C1CC(c2ccc(Cl)cc2)OC(c2ccc(Cl)cc2)C1 (centres undefined)
inactive: [16] 104 % of control | [17] 102 % of control | [18] 98 % of control

N#CN=CN1CCN(c2ccccc2)CC1
inactive: [9] 100 % of control | [10] 97 % of control | [11] 99 % of control

COC12CC(C)(C)OC1C(C)C1C(CC3(C)C4CC=C5C(C=C(O)C(=O)C5(C)C)C4(C)C(=O)CC13C)O2 (centres undefined)
inactive: dose: 100.0 mg/kg/injection, schedule: Q04DX002 (ip), vehicle: saline 100 % of control | dose: 200.0 mg/kg/injection, schedule: Q04DX002 (ip), vehicle: saline 100 % of control | dose: 400.0 mg/kg/injection, schedule: Q04DX002 (ip), vehicle: saline 100 % of control

O=C1CCOc2cccc(c2)OCCC(=O)OCCCOC(=O)CCOc2cccc(c2)OCCC(=O)OCCCO1
inactive: dose: 12.5 mg/kg/injection, schedule: Q01DX005 (ip), vehicle: saline 103 % of control | dose: 25.0 mg/kg/injection, schedule: Q01DX005 (ip), vehicle: saline 107 % of control | [13] 96 % of control | [19] 98 % of control

Cc1csc(Cl)c1NC1=NCCN1
inactive: [19] 104 % of control | dose: 100.0 mg/kg/injection, schedule: Q01DX005 (ip), vehicle: saline 107 % of control

O=S(=O)(Cl)C(F)(F)C(F)(F)C(F)(F)C(F)(F)C(F)(F)C(F)(F)F
inactive: dose: 12.5 mg/kg/injection, schedule: Q01DX009 (ip), vehicle: saline with Tween-80 100 % of control | dose: 25.0 mg/kg/injection, schedule: Q01DX009 (ip), vehicle: saline with Tween-80 104 % of control | [9] 100 % of control and 93 % of control | [10] 112 % of control

O=C(N1CCC(CCCC2CCN(C(=O)C(F)(F)C(F)(F)C(F)(F)C(F)(F)C(F)(F)C(F)(F)C(F)(F)F)CC2)CC1)C(F)(F)C(F)(F)C(F)(F)C(F)(F)C(F)(F)C(F)(F)C(F)(F)F
inactive: [16] 98 % of control | [17] 96 % of control | [18] 95 % of control

c1ccc(-c2nnc(-c3ccccc3)c3c2nn2ccc4ccccc4c32)cc1
inactive: dose: 100.0 mg/kg/injection, schedule: Q01DX001 (ip), vehicle: saline with Tween-80 90 % of control | dose: 200.0 mg/kg/injection, schedule: Q01DX001 (ip), vehicle: saline with Tween-80 89 % of control | dose: 400.0 mg/kg/injection, schedule: Q01DX001 (ip), vehicle: saline with Tween-80 103 % of control

NC(C(=O)O)C(=O)O
inactive: [6] 101 % of control | [7] 100 % of control | dose: 200.0 mg/kg/injection, schedule: Q01DX005 (ip), vehicle: saline with Tween-80 89 % of control

CN1CCc2c1c1c(c3c4ccccc4n(C)c23)N(C)CC1
inactive: dose: 6.25 mg/kg/injection, schedule: Q01DX005 (ip), vehicle: Klucel (hydroxypropylcellulose) (HPC) 103 % of control | dose: 12.5 mg/kg/injection, schedule: Q01DX005 (ip), vehicle: Klucel (hydroxypropylcellulose) (HPC) 104 % of control | [20] 107 % of control

C=C[Si]12OCCN(CCO1)CCO2
inactive: [21] 119 % of control | [8] 112 % of control | [1] 114 % of control | [2] 109 % of control and 98 % of control | [3] 102 % of control | [12] 100 % of control

CC(C)=CC(O)C/C(C)=C/CC/C(C)=C/CCC1(C)C(CCCO)/C(=C(/C)C=O)CCC1(C)O (centres undefined)
inactive: [20] 106 % of control | [13] 106 % of control | [14] 119 % of control | [15] 116 % of control

O=C1CSC(=S)N1c1ccco1
inactive: [10] 100 % of control | [11] 100 % of control

Nc1ccc(C(=O)CCl)c(Cl)c1
inactive: [21] 107 % of control | [8] 110 % of control | [1] 110 % of control and 116 % of control

O=C(Nc1cc(Cl)ccc1C(=O)O)c1cccc(C[n+]2ccccc2)c1
inactive: [4] 91 % of control | [5] 102 % of control | [6] 102 % of control

CC(C)NC(=O)N(CCCCBr)N=O
inactive: dose: 6.25 mg/kg/injection, schedule: Q01DX009 (ip), vehicle: Klucel (hydroxypropylcellulose) (HPC) 92 % of control | [21] 99 % of control | [8] 101 % of control | [1] 117 % of control

COc1cc2c[n+](C)c3c(c2cc1OC)Cc1cc2c(cc1-3)OCO2
active: [5] 151 % of control | [19] 174 % of control | [7] 168 % of control

Reference: PubChem BioAssay AID330 (DTP/NCI, 2004)
